Among the data in ChEMBL document CHEMBL4425097, “Adrenomedullin 2.0: Adjusting Key Levers for Metabolic Stability” (J Med Chem, 2016) are Activity values, retold here.

The source made the active and inactive calls. The rule behind the calls is not given here. Where a SMILES comes first, the peptide text is derived from it. Bridges are numbered along the chain shown (N, C = ends).

The test concerns the target Adrenomedullin receptor AM1; CALCRL/RAMP2 (Homo sapiens) (UniProt O60895+Q16602). The test can be described thus: Agonist activity at eYFP-tagged CLR/eCFP-tagged RAMP2-derived AM1 receptor (unknown origin) expressed in HEK293 cells assessed as cAMP accumulation after 3 hrs by ONE-Glo substrate-based luminescence assay. It counts as functional, cell-based.
In the case of `CC[C@H](C)[C@H](NC(=O)[C@H](CCC(N)=O)NC(=O)[C@H](Cc1cnc[nH]1)NC(=O)[C@H](C)NC(=O)[C@H](CC(C)C)NC(=O)[C@H](CCCCN)NC(=O)[C@H](CCC(N)=O)NC(=O)[C@@H](NC(=O)[C@@H](NC(=O)[C@@H]1CSSC[C@H](NC(=O)CNC(=O)CN)C(=O)N[C@@H](CCCNC(=N)N)C(=O)N[C@@H](Cc2ccccc2)C(=O)NCC(=O)N[C@@H]([C@@H](C)O)C(=O)N1)[C@@H](C)O)C(C)C)C(=O)N[C@@H](Cc1ccc(O)cc1)C(=O)N[C@@H](CCC(N)=O)C(=O)N[C@@H](Cc1ccccc1)C(=O)N[C@H](C(=O)N[C@@H](CC(=O)O)C(=O)N[C@@H](CCCCN)C(=O)N[C@@H](CC(=O)O)C(=O)N[C@@H](CCCCN)C(=O)N[C@@H](CC(=O)O)C(=O)N[C@@H](CC(N)=O)C(=O)N[C@H](C(=O)N[C@@H](C)C(=O)N1CCC[C@H]1C(=O)N[C@@H](CCCNC(=N)N)C(=O)O)C(C)C)[C@@H](C)O` (H-GGCRFGTCTVQKLAHQIYQFTDKDKDNVAPR-OH; disulfide 3-8), the result was inactive.

On to `C[C@@H](O)[C@@H]1NC(=O)CNC(=O)[C@H](Cc2ccccc2)NC(=O)[C@H](CCCNC(=N)N)NC(=O)[C@@H](NC(=O)CNC(=O)CN)CSSC[C@@H](C(=O)O)NC1=O` (H-GGCRFGTC-OH; disulfide 3-8), for which the outcome was inactive. Next, `CC[C@H](C)[C@H](NC(=O)[C@H](CCC(N)=O)NC(=O)[C@H](Cc1cnc[nH]1)NC(=O)[C@H](C)NC(=O)[C@H](CC(C)C)NC(=O)[C@H](CCCCN)NC(=O)[C@H](CCC(N)=O)NC(=O)[C@@H](NC(=O)[C@@H](NC(=O)[C@@H]1CSSC[C@H](NC(=O)CNC(=O)CN)C(=O)N[C@@H](CCCNC(=N)N)C(=O)N[C@@H](Cc2ccccc2)C(=O)NCC(=O)N[C@@H]([C@@H](C)O)C(=O)N1)[C@@H](C)O)C(C)C)C(=O)N[C@@H](Cc1ccc(O)cc1)C(=O)N[C@@H](CCC(N)=O)C(=O)N[C@@H](Cc1ccccc1)C(=O)N[C@H](C(=O)N[C@@H](CC(=O)O)C(=O)N[C@@H](CCCCN)C(=O)N[C@@H](CC(=O)O)C(=O)N[C@@H](CCCCN)C(=O)N[C@@H](CC(=O)O)C(=O)N[C@@H](CC(N)=O)C(=O)N[C@H](C(=O)N[C@@H](C)C(=O)N1CCC[C@H]1C(=O)N[C@@H](CCCNC(=N)N)C(=O)N[C@@H](CO)C(=O)O)C(C)C)[C@@H](C)O` (H-GGCRFGTCTVQKLAHQIYQFTDKDKDNVAPRS-OH; disulfide 3-8): “inactive”; `CC[C@H](C)[C@H](NC(=O)[C@H](CCC(N)=O)NC(=O)[C@H](Cc1cnc[nH]1)NC(=O)[C@H](C)NC(=O)[C@H](CC(C)C)NC(=O)[C@H](CCCCN)NC(=O)[C@H](CCC(N)=O)NC(=O)[C@@H](NC(=O)[C@@H](N)[C@@H](C)O)C(C)C)C(=O)N[C@@H](Cc1ccc(O)cc1)C(=O)N[C@@H](CCC(N)=O)C(=O)N[C@@H](Cc1ccccc1)C(=O)N[C@H](C(=O)N[C@@H](CC(=O)O)C(=O)N[C@@H](CCCCN)C(=O)N[C@@H](CC(=O)O)C(=O)N[C@@H](CCCCN)C(=O)N[C@@H](CC(=O)O)C(=O)N[C@@H](CC(N)=O)C(=O)N[C@H](C(=O)N[C@@H](C)C(=O)N1CCC[C@H]1C(=O)N[C@@H](CCCNC(=N)N)C(=O)N[C@@H](CO)C(=O)N[C@@H](CCCCN)C(=O)N[C@H](C(=O)N[C@@H](CO)C(=O)N1CCC[C@H]1C(=O)N[C@@H](CCC(N)=O)C(=O)NCC(=O)N[C@@H](Cc1ccc(O)cc1)C(N)=O)[C@@H](C)CC)C(C)C)[C@@H](C)O`: “inactive”.
